What follows are compounds tested against T1, human PAH with the R408W mutation (Homo sapiens, UniProt P00439, R408W) (assay: Cell Based Phenylalanine Flux Assay). Conditions: A375 cells expressing R408W PAH; 24 hrs with compound, then 20 µM sepiapterin and 800 µM 13C9,15N-Phenylalanine for 4 hours; 13C-Tyrosine by LC-MS; average where tested multiple times; read-out: AC50.
T1 construct: expressed in transfected cells
T1 sequence (P00439 1-452 R408W): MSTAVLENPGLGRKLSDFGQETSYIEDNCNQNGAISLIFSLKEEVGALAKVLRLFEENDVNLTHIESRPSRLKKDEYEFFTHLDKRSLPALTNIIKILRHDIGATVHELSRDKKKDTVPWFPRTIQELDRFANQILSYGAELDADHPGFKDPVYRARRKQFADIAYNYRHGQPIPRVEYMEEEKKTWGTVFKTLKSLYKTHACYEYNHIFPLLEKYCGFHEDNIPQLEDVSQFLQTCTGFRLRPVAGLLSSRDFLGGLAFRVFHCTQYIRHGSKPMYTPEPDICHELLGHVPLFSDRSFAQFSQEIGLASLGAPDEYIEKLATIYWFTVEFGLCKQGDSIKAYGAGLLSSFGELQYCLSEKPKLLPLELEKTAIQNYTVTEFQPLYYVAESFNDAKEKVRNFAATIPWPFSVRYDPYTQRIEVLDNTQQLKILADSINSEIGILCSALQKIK
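Further: after compound treatment, cells received sepiapterin plus isotope-labelled Phenylalanine for 4 hours, then labelled Tyrosine in the medium was quantified, 10-point 2-fold dilution series run in duplicate.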

AC50 | SMILES
1 to 5 µM | Cc1ccn2nc(C3c4nc[nH]c4CCN3C(=O)c3nnc(C(C)(C)F)o3)cc2c1 (centres unmarked)
> 5 µM | Cc1cccn2nc(C3c4nc[nH]c4CCN3C(=O)c3nnc(-c4cn[nH]c4)o3)cc12 (centres unmarked)
1 to 5 µM | Cn1ccc(-c2ncc(C(=O)N3CCc4[nH]cnc4C3c3cc4c(C(F)F)cccn4n3)o2)n1 (centres unmarked)
> 5 µM | Cn1ccc(-c2ncc(C(=O)N3CCc4[nH]cnc4C3c3cc4ccccn4n3)o2)n1 (centres unmarked)

SMILES | AC50
Cc1nc(C(C)(C)O)oc1C(=O)N1CCc2[nH]cnc2[C@H]1c1cc2ccccn2n1 (single isomer, unassigned) | 1 to 5 µM

Same assay, conditions: A375 cells expressing human PAH R408W; 24 hrs compound incubation; 13C-Tyrosine by LC-MS; average where tested multiple times; read-out: AC50

AC50 | SMILES
< 0.5 µM | CC(C)c1cccn2nc([C@@H]3c4nc[nH]c4CCN3C(=O)c3nnc(-c4ccn(C)n4)o3)cc12 [Example 1951, (S)-(4-(4-isopropylpyrazolo[1,5-a]pyridin-2-yl)-1,4,6,7-tetrahydro-5H-imidazo[4,5-c]pyridin-5-yl)(5-(1-methyl-1H-pyrazol-3-yl)-1,3,4-oxadiazol-2-yl)methanone]
1 to 5 µM | Cc1nnc(N2CCc3[nH]cnc3[C@H]2c2cc3c(C)cccn3n2)o1 [Example 2443, (S)-2-methyl-5-(4-(4-methylpyrazolo[1,5-a]pyridin-2-yl)-6,7-dihydro-1H-imidazo[4,5-c]pyridin-5(4H)-yl)-1,3,4-oxadiazole]
> 5 µM | Cc1cccnc1-c1nnc(N2CCc3[nH]cnc3[C@@H]2c2cc3ccccn3n2)o1 [Example 2266, (R)-2-(3-methylpyridin-2-yl)-5-(4-(pyrazolo[1,5-a]pyridin-2-yl)-1,4,6,7-tetrahydro-5H-imidazo[4,5-c]pyridin-5-yl)-1,3,4-oxadiazole]
0.5 to 1 µM | Nc1cnc(N2CCc3[nH]cnc3[C@H]2c2cc3c(C(F)(F)F)cccn3n2)nc1 [Example 1835, (S)-2-(4-(4-(trifluoromethyl)pyrazolo[1,5-a]pyridin-2-yl)-1,4,6,7-tetrahydro-5H-imidazo[4,5-c]pyridin-5-yl)pyrimidin-5-amine]
> 5 µM | O=C(c1nnc(-c2ccn(C(F)(F)F)n2)o1)N1CCc2[nH]cnc2[C@@H]1c1cc2c(C3CC3)cccn2n1 [Example 1881, (R)-(4-(4-cyclopropylpyrazolo[1,5-a]pyridin-2-yl)-1,4,6,7-tetrahydro-5H-imidazo[4,5-c]pyridin-5-yl)(5-(1-(trifluoromethyl)-1H-pyrazol-3-yl)-1,3,4-oxadiazol-2-yl)methanone]
> 5 µM | O=C(c1nnc(-c2cncnc2)o1)N1CCc2[nH]cnc2[C@@H]1c1cc2c(F)cccn2n1 [Example 1975, (R)-(4-(4-fluoropyrazolo[1,5-a]pyridin-2-yl)-1,4,6,7-tetrahydro-5H-imidazo[4,5-c]pyridin-5-yl)(5-(pyrimidin-5-yl)-1,3,4-oxadiazol-2-yl)methanone]
> 5 µM | CC(C)c1nnc(N2CCc3[nH]cnc3[C@@H]2c2cc3c(Cl)cccn3n2)o1 [Example 2324, (R)-2-(4-(4-chloropyrazolo[1,5-a]pyridin-2-yl)-1,4,6,7-tetrahydro-5H-imidazo[4,5-c]pyridin-5-yl)-5-isopropyl-1,3,4-oxadiazole]
> 5 µM | O=C(c1nc2ccccc2s1)N1CCc2[nH]cnc2[C@@H]1c1cc2c(C(F)F)cccn2n1 [Example 2023, (R)-benzo[d]thiazol-2-yl(4-(4-(difluoromethyl)pyrazolo[1,5-a]pyridin-2-yl)-1,4,6,7-tetrahydro-5H-imidazo[4,5-c]pyridin-5-yl)methanone]
0.5 to 1 µM | O=C(c1ncco1)N1CCc2[nH]cnc2[C@H]1c1cc2c(C(F)F)cccn2n1 [Example 2076, (S)-(4-(4-(difluoromethyl)pyrazolo[1,5-a]pyridin-2-yl)-1,4,6,7-tetrahydro-5H-imidazo[4,5-c]pyridin-5-yl)(oxazol-2-yl)methanone]
1 to 5 µM | Cn1cc(-c2nnc(C(=O)N3CCc4[nH]cnc4[C@H]3c3cc4c(OC(F)F)cccn4n3)o2)cn1 [Example 2445, (S)-(4-(4-(difluoromethoxy)pyrazolo[1,5-a]pyridin-2-yl)-6,7-dihydro-1H-imidazo[4,5-c]pyridin-5(4H)-yl)(5-(1-methyl-1H-pyrazol-4-yl)-1,3,4-oxadiazol-2-yl)methanone]
< 0.5 µM | Cn1ccc(-c2nnc(C(=O)N3CCc4[nH]cnc4[C@H]3c3cc4c(F)cccn4n3)s2)n1 [Example 1995, (S)-(4-(4-fluoropyrazolo[1,5-a]pyridin-2-yl)-1,4,6,7-tetrahydro-5H-imidazo[4,5-c]pyridin-5-yl)(5-(1-methyl-1H-pyrazol-3-yl)-1,3,4-thiadiazol-2-yl)methanone]
0.5 to 1 µM | CC(F)(F)c1nnc(N2CCc3[nH]cnc3[C@H]2c2cc3ccccn3n2)o1 [Example 2191, (S)-2-(1,1-difluoroethyl)-5-(4-(pyrazolo[1,5-a]pyridin-2-yl)-1,4,6,7-tetrahydro-5H-imidazo[4,5-c]pyridin-5-yl)-1,3,4-oxadiazole]

Same assay, conditions: A375 cells expressing human R408W PAH; 24 hrs compound incubation; 13C-Tyrosine by LC-MS; average where tested multiple times; read-out: AC50

AC50 | SMILES
> 5 µM | Cc1c(-c2nnc(C(=O)N3CCc4[nH]cnc4[C@@H]3c3cc4cccc(Cl)n4n3)o2)cnn1C [Example 1209, (R)-(4-(7-chloropyrazolo[1,5-a]pyridin-2-yl)-6,7-dihydro-1H-imidazo[4,5-c]pyridin-5(4H)-yl)(5-(1,5-dimethyl-1H-pyrazol-4-yl)-1,3,4-oxadiazol-2-yl)methanone]
< 0.5 µM | Cc1nc(C(C)(C)F)oc1C(=O)N1CCc2[nH]cnc2[C@H]1c1cc2c(F)cccn2n1 [Example 1275, (S)-(2-(2-fluoropropan-2-yl)-4-methyloxazol-5-yl)(4-(4-fluoropyrazolo[1,5-a]pyridin-2-yl)-6,7-dihydro-1H-imidazo[4,5-c]pyridin-5(4H)-yl)methanone]
< 0.5 µM | Cc1cccn2nc([C@@H]3c4nc[nH]c4CCN3C(=O)c3nnc(-c4ccncc4)o3)cc12 [Example 850, (S)-(4-(4-methylpyrazolo[1,5-a]pyridin-2-yl)-6,7-dihydro-1H-imidazo[4,5-c]pyridin-5(4H)-yl)(5-(pyridin-4-yl)-1,3,4-oxadiazol-2-yl)methanone]
0.5 to 1 µM | CC(C)(F)c1nnc(C(=O)N2CCc3[nH]cnc3[C@H]2c2cc3ccc(F)cn3n2)o1 [Example 1114, (S)-(5-(2-fluoropropan-2-yl)-1,3,4-oxadiazol-2-yl)(4-(6-fluoropyrazolo[1,5-a]pyridin-2-yl)-6,7-dihydro-1H-imidazo[4,5-c]pyridin-5(4H)-yl)methanone]
1 to 5 µM | O=C(c1nnc(C2CC2)o1)N1CCc2[nH]cnc2[C@@H]1c1cc2cccc(C(F)F)n2n1 [Example 1391, (R)-(5-cyclopropyl-1,3,4-oxadiazol-2-yl)(4-(7-(difluoromethyl)pyrazolo[1,5-a]pyridin-2-yl)-6,7-dihydro-1H-imidazo[4,5-c]pyridin-5(4H)-yl)methanone]
> 5 µM | Cc1cccn2nc([C@H]3c4nc[nH]c4CCN3C(=O)c3nc(C(F)(F)F)nn3C)cc12 [Example 1057, (R)-(1-methyl-3-(trifluoromethyl)-1H-1,2,4-triazol-5-yl)(4-(4-methylpyrazolo[1,5-a]pyridin-2-yl)-6,7-dihydro-1H-imidazo[4,5-c]pyridin-5(4H)-yl)methanone]
0.5 to 1 µM | O=C(c1nnc(-c2ccccn2)o1)N1CCc2[nH]cnc2[C@H]1c1cc2ccccn2n1 [Example 605, (S)-(4-(pyrazolo[1,5-a]pyridin-2-yl)-6,7-dihydro-1H-imidazo[4,5-c]pyridin-5(4H)-yl)(5-(pyridin-2-yl)-1,3,4-oxadiazol-2-yl)methanone]
> 5 µM | Cc1c(-c2nnc(C(=O)N3CCc4[nH]cnc4[C@@H]3c3cc4ccccn4n3)o2)cnn1C [Example 973, (R)-(5-(1,5-dimethyl-1H-pyrazol-4-yl)-1,3,4-oxadiazol-2-yl)(4-(pyrazolo[1,5-a]pyridin-2-yl)-6,7-dihydro-1H-imidazo[4,5-c]pyridin-5(4H)-yl)methanone]
0.5 to 1 µM | Cc1cccc2cc([C@@H]3c4nc[nH]c4CCN3c3nnc(C(F)F)o3)nn12 [Example 1741, (S)-2-(difluoromethyl)-5-(4-(7-methylpyrazolo[1,5-a]pyridin-2-yl)-6,7-dihydro-1H-imidazo[4,5-c]pyridin-5(4H)-yl)-1,3,4-oxadiazole]
> 5 µM | O=C(c1nnc(-c2ccc(F)cc2F)o1)N1CCc2[nH]cnc2[C@@H]1c1cc2ccccn2n1 [Example 653, (R)-(5-(2,4-difluorophenyl)-1,3,4-oxadiazol-2-yl)(4-(pyrazolo[1,5-a]pyridin-2-yl)-6,7-dihydro-1H-imidazo[4,5-c]pyridin-5(4H)-yl)methanone]
> 5 µM | Cc1cccc2cc([C@H]3c4nc[nH]c4CCN3c3nnc(C(F)F)o3)nn12 [Example 1740, (R)-2-(difluoromethyl)-5-(4-(7-methylpyrazolo[1,5-a]pyridin-2-yl)-6,7-dihydro-1H-imidazo[4,5-c]pyridin-5(4H)-yl)-1,3,4-oxadiazole]
1 to 5 µM | Cc1cccn2nc([C@H]3c4nc[nH]c4CCN3C(=O)c3oc(C4(O)CC4)nc3C(F)F)cc12 [Example 1221, (R)-(4-(difluoromethyl)-2-(1-hydroxycyclopropyl)oxazol-5-yl)(4-(4-methylpyrazolo[1,5-a]pyridin-2-yl)-6,7-dihydro-1H-imidazo[4,5-c]pyridin-5(4H)-yl)methanone]
